Assay results: US7384656B2, “Anti-allergy composition and related method” (Access Business Group International LLC, priority 2004, dated 2008)

Experiments:
[1] = tested on: allergic response to allergen extracts (cat dander, pollen and grass); assay: Clinical study with Nasal Allergen Challenge (NAC): symptom scores and sneeze counts; type: in vivo, human
Experimental: To test the efficacy of an embodiment of the composition in inhibiting an allergic response, a comparative clinical study was conducted on human subjects. This clinical study consisted of testing twenty subjects for positive allergic reaction to allergen extracts (cat dander, pollen and grass). The subjects were then randomized to receive: a control, specifically a placebo; loratadine, a known anti-histamine drug, sold under the trademark CLARITIN, and a composition of the above embodiments including Picao preto, Acerola, and Cinnamon (referred to herein as the Blend). Each of these were administered to the subjects in three doses a day for two days before receiving a Nasal Allergen Challenge (NAC), which is a commonly used test for predicting real-life efficacy of allergen treatments. Specifically, Claritin was administered in an amount of 10 mg per dose; the placebo in an amount of 450 mg per dose; and the Blend in an amount of 450 mg per dose, that dose for the Blend including 150 mg Picao preto; 150 mg Acerola and 150 mg Cinnamon. Other suitable Cinnamon levels are in the range of about 25 mg to about 650 mg; suitable Picao preto levels are in the range of 25 to about 650 mg; and suitable Acerola levels are in the range of about 25 mg to about 650 mg.
(§1) During the NAC, subjects had […] increasing doses of allergen (0 (water was administered), 50, 250, 1250, and 6250 Bioequivalent Allergy Units/ml (BAU/ml)) squirted up their noses over a period of two hours. Bioequivalent Allergy Units were calculated using ID50EAL testing (Intradermal Dilution for 50 mm Sum of Erythema Determines Bioequivalent Allergy Units) (Turkeltaub PC, Biological standardization of allergenic extracts. Allergol Immunopathol (Madr). 1989, 17:53-65.
To analyze the allergy treatment effects of the Blend, Claritin and the placebo, a composite measurement of blockage, secretion and sneezing was determined. The smallest clinically meaningful difference in allergy treatment effects has been determined to be about a 0.5 score step on an 0 to 9 scale of the composite measurement of blockage, secretion and sneezing. Akerlund, A. et al, Clinical Trial Design, Nasal Allergen Challenge Models and Considerations of relevance to Pediatrics, Nasal Polyposis and Different Classes of Medication. J. Allergy. Clin. Imm., 115 (3.2): S460-482 (March 2005). Measurements used in connection determining blockage, secretion and sneezing were the Nasal Symptoms Score, the Pruritus-Rhinorrhea-Conjunctivitis Score, and sneeze counting, respectively.
The allergic symptoms of the twenty subjects were measured ten minutes after each exposure to the with an eleven-point Nasal Symptom Scale, (on a scale of 1-11, 11 being the most symptoms observed), which is common to the NAC, to establish the Nasal Symptom Score. The subjects also underwent the nasal lavage to collect supernatants which were assayed for allergic reaction and inflammatory mediators: prostaglandin D2; Leukotriene […]; and tryptase.
After the NAC, subjects were released, but continued rating their symptoms every two hours for eight hours using the Nasal Symptom Scale, as well as a 15-point Pruritus-Rhinorrhea-Conjunctivitis Scale, which is a common scale that is intended to be more sensitive than the Nasal Symptom Scale. On this scale, Pruritus, Rhinorrhea, and Conjunctivitis were each rated as none, mild, mild to moderate, moderate, moderate to severe, or severe, scored 0, 1, 2, 3, 4, or 5 points respectively, with a maximum total of 15 points for all three together. In addition, during the eight hour period, the subjects counted and recorded the number of their sneezes within each two-hour period to establish a sneeze count. […]

Prostaglandin D2 = assay: Allergic mediators in nasal fluid (nasal lavage) before and after NAC; type: in vivo, human; settings: before versus after administration of allergens
Experimental: To test the efficacy of an embodiment of the composition in inhibiting an allergic response, a comparative clinical study was conducted on human subjects. This clinical study consisted of testing twenty subjects for positive allergic reaction to allergen extracts (cat dander, pollen and grass). The subjects were then randomized to receive: a control, specifically a placebo; loratadine, a known anti-histamine drug, sold under the trademark CLARITIN, and a composition of the above embodiments including Picao preto, Acerola, and Cinnamon (referred to herein as the Blend). […]
as §1
The allergic symptoms of the twenty subjects were measured ten minutes after each exposure to the with an eleven-point Nasal Symptom Scale, (on a scale of 1-11, 11 being the most symptoms observed), which is common to the NAC, to establish the Nasal Symptom Score. […]

[2] = tested on: PGD2 release, RBL-2H3 cells; assay: PGD2 release from IgE-sensitized, DNP-BSA stimulated RBL-2H3 cells (ELISA); type: cell-based; settings: 1 μg/ml
Experimental: (§2) The methodology used to obtain the results of FIG. 9 will now be described. First, RBL-2H3 cells, available from ATCC (American Type Culture Collection) of Manassas, Va., were plated in 24 well plates at 5×10^4/well. Following adherence, the cells were exposed to the ingredients or combination of ingredients noted in FIG. 9, also referred to as samples. The samples were used at the concentrations noted in Table VI. Stock solutions of all samples were prepared in a solution of DMSO, ethanol, and water present in a ratio of 5:3:2 at 100 mg/ml. Each sample was then diluted in media to the final concentration. The cells were then incubated overnight with the samples. The following day a mouse anti-dinitrophenyl (DNP) IgE antibody, available from Sigma of St. Louis, Mo., was added to the cells at a final concentration of 1 ng/ml. The cells were incubated for 1.5 hr at 37° C. to allow binding of the IgE molecule to the cellular IgE receptor via the constant region of the antibody. Following this incubation period, the cells were washed twice. A solution containing DNP conjugated to BSA (DNP-BSA), available from Calbiochem of San Diego, Calif., was added to the cells at 0.5 ng/ml. […] Next, the measured OD450 data from the ELISA was inputted into a calibration graph to determine the amount by which histamine was reduced relative to an untreated control sample. […]

[3] = tested on: LTC4 release, RBL-2H3 cells; assay: LTC4 release from IgE-sensitized, DNP-BSA stimulated RBL-2H3 cells (ELISA); type: cell-based; settings: 0.1 μg/ml
Experimental: as §2

[4] = tested on: histamine release, RBL-2H3 cells; assay: Histamine release from IgE-sensitized, DNP-BSA stimulated RBL-2H3 cells (ELISA); type: cell-based; settings: 10 ng/ml
Experimental: The methodology used to obtain the results of FIG. 9 will now be described. First, RBL-2H3 cells, available from ATCC (American Type Culture Collection) of Manassas, Va., were plated in 24 well plates at 5×10^4/well. Following adherence, the cells were exposed to the ingredients or combination of ingredients noted in FIG. 9, also referred to as samples. The samples were used at the concentrations noted in Table VI. Stock solutions of all samples were prepared in a solution of DMSO, ethanol, and water present in a ratio of 5:3:2 at 100 mg/ml. Each sample was then diluted in media to the final concentration. The cells were then incubated overnight with the samples. The following day a mouse anti-dinitrophenyl (DNP) IgE antibody, available from Sigma of St. Louis, Mo., was added to the cells at a final concentration of 1 ng/ml. The cells were incubated for 1.5 hr at 37° C. to allow binding of the IgE molecule to the cellular IgE receptor via the constant region of the antibody. Following this incubation period, the cells were washed twice. A solution containing DNP conjugated to BSA (DNP-BSA), available from Calbiochem of San Diego, Calif., was added to the cells at 0.5 ng/ml. The cells were incubated an additional 1 hr at 37° C. The supernatants were assayed for the presence of histamine, PGD2 and/or LTC4 using ELISA kits commercially available from Cayman Chemical of Ann Arbor, Mich. according to the manufacturer's specifications. Next, the measured OD450 data from the ELISA was inputted into a calibration graph to determine the amount by which histamine was reduced relative to an untreated control sample. An example of a histamine calibration graph is illustrated in FIG. 10. Suffice it to say that calibration graphs for PGD2 and LTC4 are similar. The calibration graph in FIG. 10 was generated by measuring the OD450 of multiple, known concentrations of purified histamine. As shown in the graph, the X-axis indicates the concentrations of the histamine in nanomolar; and the Y-axis indicates the OD450 derived from each of the concentrations. The line 120 connects the data points, while line 130 is a trend line corresponding to the equation in this particular embodiment of: Y=−0.0025X^2+0.2915X+2.0775 Equation 2 With the histamine calibration graph, the amount of histamine for each sample was determined, and the subsequent data was input into Table VI and FIG. 9 for comparative analysis.

[5] = tested on: IgE secretion by U266 human myeloma cells; assay: IgE secretion by U266 human myeloma cells (IgE ELISA of supernatants); type: cell-based; settings: varying concentrations
Experimental: The methodology used to obtain the results of FIG. 3 will now be described. First, U266 human myeloma cells, available from ATCC of Manassas, Va. were plated in 96 well plates at 4×10^4/well. The cells were exposed to the sample combinations of ingredients listed in Table I, each combination referred to as a “sample.” Stock solutions of all samples were prepared in a solution of DMSO, ethanol, and water present in a ratio of 5:3:2 at 100 mg/ml. Each sample was then diluted to 100 μg/ml in media. Duplicate plates of each sample were prepared so that viability could be determined multiple times for each sample, with the results of the multiple samples averaged following treatment of the cells. The plates were incubated an additional 48 hours. Thereafter, the amount of IgE in the supernatants was measured using a conventional quantitative IgE ELISA kit available from Bethyl Laboratories of Montgomery, Tex. Next, the measured OD450 data from the IgE ELISA was inputted into a calibration graph, illustrated in FIG. 4, to determine the concentration of IgE in ng/ml in each supernatant. This calibration graph was generated by measuring the OD450 of multiple, known concentrations (in nanograms per ml) of purified IgE. As shown in the graph, the X-axis indicates the concentrations of the IgE in ng/ml; and the Y-axis indicates the OD450 derived from each of the concentrations. The line 100 connects the data points, while line 110 is a trend line corresponding to the equation in this particular embodiment of: Y=0.2909X−0.2527 Equation 1 With the IgE calibration graph, the amount of IgE for each sample was determined, and the subsequent data was input into FIG. 3 for comparative analysis.

[6] = tested on: IgE receptor (FcεRIα) on RBL-2H3 cells; assay: IgE receptor expression on RBL-2H3 cells (anti-FcεRIα cell ELISA normalized to MTT viability); type: cell-based
Experimental: The methodology used to obtain the results of FIG. 1 will now be described. First, RBL-2H3 cells, available from ATCC (American Type Culture Collection) of Manassas, Va., were plated in 96 well plates at 3×10^4/well. Following adherence to the wells, the cells were exposed to the sample combinations of ingredients listed in Table I, each combination referred to as a “sample.” Stock solutions of all samples were prepared in a solution of DMSO, ethanol, and water present in a ratio of 5:3:2 at 100 mg/ml. […] Duplicate plates of each sample were prepared so that viability could be determined multiple times for each sample, with the results of the multiple samples averaged following treatment of the cells. The plates were incubated an additional 48 hours. To measure IgE-receptor expression, the cells were fixed for 2 hours with 1% gluteraldehyde. Following fixation, the cells were washed twice with PBS-Tween 20 (0.01%), available from Aldrich of Milwaukee, Wis. Protein binding sites were blocked for 2 hours with 2% non-fat dry milk in PBS (Phosphate Buffer Saline buffered at pH 7.3). The cells were washed twice. The primary antibody, Rabbit anti-FcεRIα, available from Upstate Group, Inc., Lake Placid, N.Y., was added to the wells and diluted 1:4000 with 0.2% BSA (Bovine Serum Albumin). Following a 2 hour incubation, the wells were washed 5× with PBS-Tween 20 (0.01%) solutions. The secondary antibody, Goat anti-rabbit IgG-peroxidase, available from Sigma-Aldrich of St. Louis, Mo., was added to the wells at 1:20000 with 0.2% BSA. Following a 1 hour incubation the wells were washed five times. 100 μliters (microliters) of TMB (3,3′,5,5±Tetramethyl benzidine dihydrochloride) Substrate, available from Chemicon International of Temecula, Calif., was added to the wells. Subsequent color development was stopped by the addition of a sufficient amount, H2SO4 (for example, 100 μliters at 1 Normal). For each of the multiple samples of the combination, the OD450 (Optical Density measured at a wavelength of 450 nanometers) was read on a plate reader. Continuing with a description of the methodology to obtain the data in FIG. 1, the viability of the cells was next determined by incubating the cells in the second plate with MTT in a concentration of 1 mg/ml for 3 hours. The reduced MTT was extracted with 70% isopropanol and the OD540 (Optical Density at a wavelength of 540 nanometers) was read for each of the multiple samples.

[7] = immediate phase (two hours during the NAC)

In the case of CCOC(=O)N1CCC(=C2c3ccc(Cl)cc3CCc3cccnc32)CC1 [Claritin, loratadine], the “Nasal Symptom Scores versus placebo” value ([1]; delayed phase, at six hours and overall, Blend 450 mg per dose, Claritin 10 mg) is reported as “significantly fewer”, the “Nasal Symptom Score versus placebo (FIG. 15)” value ([1]; delayed phase, at two hours) is reported as “trends toward significantly fewer symptoms” and the “PRC score versus the Blend” value [1, 7] is reported as “lower PRC score”. The “sneezes versus the Blend” value [1, 7] was “fewer sneezes”, the “Nasal Symptom Score versus the Blend” value ([1]; immediate phase (two hours during the NAC), Claritin 10 mg per dose) was “lower Nasal Symptom Score” and the “Nasal Symptom Score Areas Over the Curve versus placebo (FIG. 18)” value ([1]; total product effect over eight hours) was “significantly better than the placebo”. For the same compound, the “change of Prostaglandin D2 in nasal fluid after the NAC (FIG. 19)” value (Prostaglandin D2) was “significant rise”.
With O=C(/C=C/c1ccc(O)c(O)c1)O[C@H](Cc1ccc(O)c(O)c1)C(=O)O [Rosmarinic acid] the “Percent Control of PGD2 Release (Table VI)” value [2] was 94%, the “Percent Control LTC4 Release (Table VI)” value [3] was 120% and the “Percent Control of Histamine Release (Table VI)” value [4] was 9.3%.
With O=C1O[C@H]([C@@H](O)CO)C(O)=C1O [Vitamin C] the “inhibition of IgE secretion, in words (FIG. 6)” value [5] was “inhibited IgE secretion”, the “decrease in IgE receptor expression (FIG. 5)” value ([6]; 200 micrograms per milliliter) was 15% and the “effect on IgE receptor expression, in words (FIG. 5)” value ([6]; varying concentrations) was “significant effect”.
